Data on 1 molecule can be found in PMC9058666 (RSC Advances, 2020).

What is called AUC(0-inf) is the area under the concentration-time curve extrapolated to infinity. Low readings indicate low exposure, high ones high exposure. Broadly, the AUC(0-t) is the area under the concentration-time curve up to a stated or last time point. The Cmax is the highest concentration seen after dosing. In general, Tmax refers to the time from dosing to the highest level. In general, half-life refers to the time needed for the level to fall by half in the phase considered. A low value points to fast loss.

One data set can be described thus: in vivo. The following applies: SD, rat, po, 50 mg/kg.
For data set [1] the following is noted: SD, rat, in vivo, po.

As for `O=c1[nH]cc(F)c(=O)[nH]1` [5-FU, 5-Fluorouracil], in “in vivo”, the AUC(0-inf) is 54600 ± 15000 ng·h/mL, the AUC(0-t) was found to be 50400 ± 10800 ng·h/mL, the peak level (Cmax) was 21000 ± 1980 ng/mL and the Tmax worked out at 40 ± 17.3 min. The half-life in “in vivo” is 88.4 ± 26.9 min. Also, in data set [1], the “Cmax of 5-FU (from Fig. 7, mean plasma concentration-time profile)” value amounted to 20 µg/mL and the “time at which Cmax was reached (from Fig. 7)” value is reported as 0.5 h.
